Reference: patent publication US20210139540A1, “MULTIVALENT LIGAND-LIPID CONSTRUCTS” (priority 2014, published 2021)

System: kodecytes
Test: Complement induced cell lysis of kodecytes in pooled AB serum
Assay type: cell-based
Conditions: for Abs 1: duplicate 1; for Abs 2: duplicate 2; for (A1 and A2): from duplicates; for Sensitivity of kodecytes to lysis compared with kodecytes prepared using construct 49: complement mediated autolysis; for Calculated %: percentage of cells lysed using standard curve; for Measured %: percentage of cells lysed, construct 49 set as 100; for Degree of lysis: qualitative
Protocol: Preparation of kodecytes Stock solutions of constructs (35, 47, 48 and 49) were prepared at a concentration of 1 mg/mL in a red blood cell (RBC) preservative solution (CELPRESOL™, CSL Limited). Prior to dilution each stock solution was vortexed for 45 seconds at room temperature (r.t.). A volume of 100 μL of diluted stock solution was added to a volume of 100 μL centrifugally packed RBCs (packed cell volume; PCV). The total volume of 200 μL suspended RBCs was incubated at 37° C. for 2 hours before washing with CELPRESOL™ and re-suspending the modified RBCs (“kodecytes”) at a concentration of 5% PCV in CELPRESOL™.
Prior to use kodecytes were washed and re-suspended 5% PCV in phosphate buffered saline (PBS). Uniformity of concentration of RBCs was confirmed by adding a volume of 40 μL of kodecyte suspension to a volume of 1 mL of Drabkins solution and the absorbance measured at 540 nm against Drabkins solution (blank). Variations in measured absorbances was reduced to less than 10% by adjustment of suspending volume.
The ability of constructs to induce complement mediated autolysis was evaluated by a method analogous to that described in the publication of Henry and Komarraju (2012). For the present studies kodecytes prepared using construct 49 were used as a 100% lysis control. A volume of 200 μL pooled AB serum and a volume of 100 μL kodecytes prepared using construct 49 at a concentration of 750 μg/mL was used as the 100% lysis control. A volume of 200 μL pooled AB serum and a volume of 100 μL O group RBCs (prepared as kodecytes without the addition of construct) was used as the 0% lysis control. To measure the ability of constructs to induce complement mediated autolysis of kodecytes volumes of 200 μL of pooled AB serum were dispensed into duplicate sets of test tubes. A volumes of 100 μL kodecytes was added to the tubes before incubation at 37° C. for 1 hour. Following incubation a volume of 1 μL ethylenediaminetetraacetic acid (EDTA) as its dipotassium salt
was added to each to each test tube to provide a final concentration of 0.1 mM EDTA. The test tubes were then centrifuged and the characteristics of the sedimented RBCs and supernatant observed (Table 2 and FIG. 2). In addition a volume of 160 μL of the cell free supernatant was removed and added to a volume of 1 mL of Drabkins solution. The absorbance of the solution was then measured at 540 nm against a volume of 160 μL pooled AB serum added to a volume of 1 mL of Drabkins solution (blank). The absorbance of the supernatant was calculated as a percentage of the initial absorbance of the suspension of kodecytes. The percentage of cells lysed was calculated against a standard curve.

[1] = absorbance 540 nm of supernatant, concentration not given
[2] = absorbance 540 nm, concentration not given
[3] = pooled AB serum, 37° C., 1 hour, construct concentration not given
[4] = absorbance 540 nm, 100% lysis control (construct 49 at 750 μg/mL)

CCCCCCCC/C=C\CCCCCCCC(=O)OCC(COP(=O)(O)OCCNC(=O)CCCCC(=O)NCCCO[C@@H]1OC(CO)[C@@H](O[C@@H]2OC(CO)[C@H](O)C(O[C@H]3OC(CO)[C@H](O)C(O)C3NC(C)=O)C2O)C(O)C1NC(C)=O)OC(=O)CCCCCCC/C=C\CCCCCCCC (stereo partly shown) [construct 48, GalNAcα1-3Galβ1-4GlcNAc-Ad-DOPE]
Abs 1 [1]: .349 | Abs 2 [1]: .345 | (A1 and A2) [2]: .347 | Sensitivity of kodecytes to lysis compared with kodecytes prepared using construct 49 (pooled AB serum): approximately twice as sensitive | Calculated % (concentration not given): 95% | Measured % (concentration not given): 190% | Degree of lysis [3]: Complete

Galili-CMG2-Ad-DOPE [construct 47]
Abs 1 [1]: .224 | Abs 2 [1]: .243 | (A1 and A2) [2]: .234 | Sensitivity of kodecytes to lysis compared with kodecytes prepared using construct 49 (pooled AB serum): somewhat more sensitive | Calculated % (concentration not given): 65% | Measured % (concentration not given): 128% | Degree of lysis [3]: Partial

Galα1-3Galβ1-4GlcNAc-Ad-DOPE [construct 49]
Abs 1 [1]: .178 | Abs 2 [1]: .187 | Abs 1 [4]: .303 | Abs 2 [4]: .310 | (A1 and A2) [4]: .307 | (A1 and A2) [2]: .183 | Calculated % (100% lysis control (construct 49 at 750 μg/mL)): 85% | Calculated % (concentration not given): 51% | Measured % (concentration not given): Set as 100% | Degree of lysis (100% lysis control: kodecytes prepared using construct 49 at 750 μg/mL): Complete | Degree of lysis [3]: Partial
